Results on one molecule are retold here after article PMC11189555, “Aryl amino acetamides prevent Plasmodium falciparum ring development via targeting the lipid-transfer protein PfSTART1” (Nature Communications, 2024).

Common to all, as to test: Solvent-PISA (solvent proteome profiling, DIA-MS)
Assay type in all cases: binding, Plasmodium falciparum

For data set [1], the system named is PF3D7_1351000 (START-domain protein). The note with it: 100 µM W-991 vs DMSO; Fig S4E. The procedure: (§1) The experiment was carried out in three biological replicates. Saponin-liberated mature parasite stages (30-42 hpi) were resuspended in PBS and lysed by 3x flash freeze/thawing using liquid N2, followed by 10 x mechanical sheering with a 29 G needle-syringe, and soluble protein isolation through ultracentrifugation (100,000 g; 20 min, 4 °C). Protein lysate was exposed to the 100 µM of W-991 or the vehicle control (DMSO) for 3 min and subsequently incubated with varying concentration of the solvent mixture ‘AEF’ (50% Acetone, 50% Ethanol, 0.1% Formate) to a final concentration of 7-25% (v/v) with 2% intervals, for 20 min at 37 °C at 800 rpm on a Thermomixer (Eppendorf). Denatured protein was pelleted through centrifugation (4 °C, 18,000 g, 20 min), and the soluble phase was recovered and pulled together in equivolume ratios into two samples; Gradient 1 ‘G1’: 7-15% EAF and Gradient 2 ‘G2’: 17-25% EAF, respectively.
(§2) Sample preparation for proteomic analysis was carried out using modified SP4 glass beads protocol. In brief, protein was reduced (20 mM TCEP, 100 mM TEAB) for 20 min at 55 °C and alkylated with 55 mM 2-Chloroacetamide for 30 min, followed by precipitation on beads in 80% ACN with a 6 min centrifugation at 21,000 g and 3 x wash with 80% Ethanol. Dried beads were subjected to sequential digestion with LysC (3 h, 1:50 ratio w/w) and trypsin (overnight, 1:50 ratio w/w), and the resulting digest was acidified with 1% TFA and desalted on T3 C18 stage tips (Affinisep) according to manufacturer’s specifications.
(§3) Peptide samples were analysed on Orbitrap Eclipse Tribrid mass spectrometer that is interfaced with the Neo Vanquish liquid chromatography system. Samples were loaded onto a C18 fused silica column (inner diameter 75 µm, OD 360 µm × 15 cm length, 1.6 µm C18 beads) packed into an emitter tip (IonOpticks) using pressure-controlled loading with a maximum pressure of 1,500 bar, that is interfaced to the mass spectrometer using Easy nLC source and electro sprayed directly into the mass spectrometer. Sample separation was carried out on a linear gradient 5% to 17% of solvent-B at 400 nL /min flow rate (solvent-B: 80% (by vol) acetonitrile) for 23 min and 17% to 25% solvent-B for 10 min, 25% to 34% for 11 min and 34% to 90% solvent-B for 1 min which was maintained at 90% B for 3 min and washed the column at 2% solvent-B for another 3 min comprising a total of 63 min run with a 45 min gradient in a data independent acquisition (DIA) mode MS scan parameters included a full scan using an orbitrap and 120,000 resolution, standard AGC target and maximum injection time of 30 ms. A second DIA experiment used the orbitrap at […] resolution, a precursor scan range of 200-1200 m/z with a normalized AGC target of 3000% and 45 variable isolation windows. Peptides were isolated and fragmented using stepped […] (HCD) at 24%, 28% and 32% normalized collision energy. Peptide identification was carried out in DIA-NN 1.8.1 using standard settings and an in silico spectral library generated from Uniprot P. falciparum (UP000001450) and human (UP000005640) reference proteomes. The peptide length range was set to 7-30 amino acids. […] Subsequently, the differential abundance analysis (moderated t-test, based on limma package[81]) of P. falciparum proteins was conducted in the R environment (R version 4.2.0; R Studio Version 2023.12.1 + 402) using precursor normalised MaxLFQ data for proteins detected with ≥2 peptides. […]

The subject of data set [2] is PF3D7_1463500 (START-domain protein). The note with it: 100 µM W-991 vs DMSO; Fig S4E. Here is the method: as §1, §2, §3
In data set [3] the test system is merozoites-associated armadillo repeats protein (MAAP, PF3D7_1035900). The note with it: 100 µM W-991 vs DMSO; 7-25% AEF. Here is the method:
as §1, §2, §3

In data set [4] the test system is ring-infected erythrocyte surface antigen (RESA3, PF3D7_1149200). The note with it: 100 µM W-991 vs DMSO; 7-25% AEF. Here is the method: as §1, §2, §3
Data set [5] deals with signal recognition particle subunit (SRP19, PF3D7_1216300). Conditions: 100 µM W-991 vs DMSO; 7-25% AEF. Here is the method:
as §1, §2, §3

The structures appear in SMILES notation.

As for `CC(C)(Nc1ccc(Cl)c(S(=O)(=O)N2CCOCC2)c1)C(=O)Nc1ccc(F)c(Cl)c1` [W-991], the “abundance/stability of the protein on compound treatment” value in data set [1] and in data set [2] was “not affected” in each case. In addition, the “soluble protein level in the presence of compound (stabilisation)” value in data set [3], in data set [4] and in data set [5] was “drug-stabilised” in each case.
